Measured values: patent publication US20170079970A1, “TETRAHYDROQUINOLINE DERIVATIVES AND THEIR USE AS EPAC1 INHIBITORS FOR THE TREATMENT OF MYOCARDIAL INFARCTION INJURY” (INSERM (INSTITUT NATIONAL DE LA SANTÉ ET DE LA RECHERCHE …, priority 2014, published 2017)

Tested on: Isolated mouse adult cardiomyocytes
Test: Hypoxia and hypoxia-reoxygenation induced cardiomyocyte death, LDH release
Assay type: cell-based
Details: pretreated with 10 μM
Experimental: FIG. 4. A pharmacological inhibitor of Epac1, R-CE3F4 prevents hypoxia and hypoxia-reoxygenation induced cardiomyocyte death. Isolated mouse adult cardiomyocytes, pretreated or not with either 10 μM R-CE3F4 or its analogue ΔCHO (10 μM) were exposed to hypoxia (HX) for 4 h followed by a 2 h of reoxygenation period (HX+R). Cell death was determined by LDH release. Results are expressed as means±S.E.M. The bar graph represents the average of 5 independent experiments performed in triplicate. Statistical significance was determined by 2-way ANOVA. * P<0.05 compared with indicated values.
Myocardial infarction was induced in wild-type (WT) versus Epac1^−/− littermates by left anterior descending coronary artery (LAD) ligation for 24 h. Ischemia/Reperfusion was induced by the left anterior descending coronary artery occlusion for 45 min and followed by 24 h of reperfusion. The area at risk (AAR) and infarct size were evaluated by Evans blue and TTC staining, respectively. […] Isolated mouse adult cardiomyocytes pretreated with either R-CE3F4 or (ΔCHO) were exposed to hypoxia (HX) for 4 h followed by a 2 h of reoxygenation period (HX+R). Cell death was determined by LDH release.

C[C@@H]1CCc2c(cc(Br)c(F)c2Br)N1C=O [R-CE3F4]
HX+R-induced cardiomyocyte death (LDH release) (hypoxia 4 h followed by 2 h reoxygenation (HX+R)): significantly prevented
HX-induced cardiomyocyte death (LDH release) (hypoxia (HX) for 4 h): significantly prevented
